Experiments:
Assay type in all cases: in vivo
[1] = tested on: Alopecurus myosuroides (ALOMY); experiment: B1 Pre-emergence herbicidal activity; design: key: 5=total damage to plant; 0=no damage to plant; conditions: pre-emergence application, rate 1000 g/ha, evaluated after 13 days
Protocol: (§1) Seeds of a variety of test species were sown in standard soil in pots: Triticum aestivium (TRZAW), Avena fatua (AVEFA), Alopecurus myosuroides (ALOMY), Echinochloa crus-galli (ECHCG), Lolium perenne (LOLPE), Zea Mays (ZEAMX), Abutilon theophrasti (ABUTH), Amaranthus retroflexus (AMARE) and Setaria fabenr (SETFA). After cultivation for one day (pre-emergence) under controlled conditions in a glasshouse (at 24/16° C., day/night; 14 hours light; 65% humidity), the plants were sprayed with an aqueous spray solution derived from the formulation of the technical active ingredient in acetone I water (50:50) solution containing 0.5% Tween 20 (polyoxyethelyene sorbitan monolaurate, CAS RN 9005-64-5). The test plants were then grown in a glasshouse under controlled conditions (at 24/16° C., day/night; 14 hours light; 65% humidity) and watered twice daily. After 13 days, the test was evaluated (5=total damage to plant; 0=no damage to plant).

Avena fatua (AVEFA) [2] = experiment: B1 Pre-emergence herbicidal activity; design: key: 5=total damage to plant; 0=no damage to plant; conditions: pre-emergence application, rate 1000 g/ha, evaluated after 13 days
Protocol: as §1

[3] = tested on: Triticum aestivium (TRZAW); experiment: B1 Pre-emergence herbicidal activity; design: key: 5=total damage to plant; 0=no damage to plant; conditions: pre-emergence application, rate 1000 g/ha, evaluated after 13 days
Protocol: as §1

[4] = tested on: Echinochloa crus-galli (ECHCG); experiment: B1 Pre-emergence herbicidal activity; conditions: pre-emergence application, rate 1000 g/ha, evaluated after 13 days
Protocol: as §1

Lolium perenne (LOLPE) [5] = experiment: B1 Pre-emergence herbicidal activity; design: key to Pre-emergence herbicidal activity, LOLPE (damage score 0-5): 5=total damage to plant; 0=no damage to plant; conditions: pre-emergence application, rate 1000 g/ha, evaluated after 13 days
Protocol: as §1

Setaria fabenr (SETFA) = experiment: B1 Pre-emergence herbicidal activity; design: key to Pre-emergence herbicidal activity, SETFA (damage score 0-5): 5=total damage to plant; 0=no damage to plant; conditions: pre-emergence application, rate 1000 g/ha, evaluated after 13 days
Protocol: as §1

Avena fatua (AVEFA) [6] = experiment: B2 Post-emergence herbicidal activity; conditions: post-emergence application, rate 1000 g/ha, evaluated after 13 days
Protocol: (§2) Seeds of a variety of test species were sown in standard soil in pots: Triticum aestivium (TRZAW), Avena fatua (AVEFA), Alopecurus myosuroides (ALOMY), Echinochloa crus-galli (ECHCG), Lolium perenne (LOLPE), Zea Mays (ZEAMX), Abutilon theophrasti (ABUTH), Amaranthus retroflexus (AMARE) and Setaria fabenri (SETFA). After 8 days cultivation (post-emergence) under controlled conditions in a glasshouse (at 24/16° C., day/night; 14 hours light; 65% humidity), the plants were sprayed with an aqueous spray solution derived from the formulation of the technical active ingredient in acetone I water (50:50) solution containing 0.5% Tween 20 (polyoxyethelyene sorbitan monolaurate, CAS RN 9005-64-5). The test plants were then grown in a glasshouse under controlled conditions (at 24/16° C., day/night; 14 hours light; 65% humidity) and watered twice daily. After 13 days, the test was evaluated (5=total damage to plant; 0=no damage to plant).

[7] = tested on: Echinochloa crus-galli (ECHCG); experiment: B2 Post-emergence herbicidal activity; design: key to Post-emergence herbicidal activity, ECHCG (damage score 0-5): 5=total damage to plant; 0=no damage to plant; conditions: post-emergence application, rate 1000 g/ha, evaluated after 13 days
Protocol: as §2

Lolium perenne (LOLPE) [8] = experiment: B2 Post-emergence herbicidal activity; conditions: post-emergence application, rate 1000 g/ha, evaluated after 13 days
Protocol: as §2

[9] = tested on: Alopecurus myosuroides (ALOMY); experiment: B2 Post-emergence herbicidal activity; design: key: 5=total damage to plant; 0=no damage to plant; conditions: post-emergence application, rate 1000 g/ha, evaluated after 13 days
Protocol: as §2

[10] = tested on: Triticum aestivium (TRZAW); experiment: B2 Post-emergence herbicidal activity; design: key: 5=total damage to plant; 0=no damage to plant; conditions: post-emergence application, rate 1000 g/ha, evaluated after 13 days
Protocol: as §2

Setaria fabenri (SETFA) = experiment: B2 Post-emergence herbicidal activity; design: key: 5=total damage to plant; 0=no damage to plant; conditions: post-emergence application, rate 1000 g/ha, evaluated after 13 days
Protocol: as §2

In the case of `O=C(Nc1ccc(-c2cncnc2)nc1C(F)(F)F)c1ccccc1` [Compound C17], the “Pre-emergence herbicidal activity, ALOMY (damage score 0-5)” value (“Pre-emergence herbicidal activity, ALOMY” for short) [1] is reported as 0, the “Pre-emergence herbicidal activity, AVEFA (damage score 0-5)” value (shortened to “Pre-emergence herbicidal activity, AVEFA”) (Avena fatua (AVEFA) [2]) is reported as 3 and the “Pre-emergence herbicidal activity, TRAZW (damage score 0-5)” value (“Pre-emergence herbicidal activity, TRAZW” below) [3] is reported as 0. For the same compound, the “Pre-emergence herbicidal activity, ECHCG (damage score 0-5)” value (from here on “Pre-emergence herbicidal activity, ECHCG”) [4] was 4, the “Pre-emergence herbicidal activity, LOLPE (damage score 0-5)” value (shortened to “Pre-emergence herbicidal activity, LOLPE”) (Lolium perenne (LOLPE) [5]) was 1 and the “Pre-emergence herbicidal activity, SETFA (damage score 0-5)” value (“Pre-emergence herbicidal activity, SETFA” below) (Setaria fabenr (SETFA)) was 5. The “Post-emergence herbicidal activity, AVEFA (damage score 0-5)” value (Avena fatua (AVEFA) [6]) was 3, the “Post-emergence herbicidal activity, ECHCG (damage score 0-5)” value [7] was 5 and the “Post-emergence herbicidal activity, LOLPE (damage score 0-5)” value (Lolium perenne (LOLPE) [8]) was 2. For the same compound, the “Post-emergence herbicidal activity, ALOMY (damage score 0-5)” value [9] was 0 and the “Post-emergence herbicidal activity, TRAZW (damage score 0-5)” value [10] was 0.

`O=C(CC1CCCCC1)Nc1ccc(-c2cncc(F)c2)nc1C(F)(F)F` [Compound C19] was tested, and the “Pre-emergence herbicidal activity, ALOMY” value [1] was 0, the “Pre-emergence herbicidal activity, AVEFA” value (Avena fatua (AVEFA) [2]) was 2 and the “Pre-emergence herbicidal activity, TRAZW” value [3] was 0. The “Pre-emergence herbicidal activity, ECHCG” value [4] was 3, the “Pre-emergence herbicidal activity, LOLPE” value (Lolium perenne (LOLPE) [5]) was 0 and the “Pre-emergence herbicidal activity, SETFA” value (Setaria fabenr (SETFA)) was 5. For the same compound, the “Post-emergence herbicidal activity, AVEFA (damage score 0-5)” value (Avena fatua (AVEFA) [6]) was 3, the “Post-emergence herbicidal activity, ECHCG (damage score 0-5)” value [7] was 4 and the “Post-emergence herbicidal activity, LOLPE (damage score 0-5)” value (Lolium perenne (LOLPE) [8]) was 1. For the same compound, the “Post-emergence herbicidal activity, ALOMY (damage score 0-5)” value [9] was 0 and the “Post-emergence herbicidal activity, TRAZW (damage score 0-5)” value [10] was 0.

For `O=C(Nc1ccc(-c2cncc(F)c2)nc1C(F)(F)F)C1CCCCC1` [Compound C20], the “Pre-emergence herbicidal activity, ALOMY” value [1] was 0, the “Pre-emergence herbicidal activity, AVEFA” value (Avena fatua (AVEFA) [2]) was 2 and the “Pre-emergence herbicidal activity, TRAZW” value [3] was 0. For the same compound, the “Pre-emergence herbicidal activity, ECHCG” value [4] was 4, the “Pre-emergence herbicidal activity, LOLPE” value (Lolium perenne (LOLPE) [5]) was 0 and the “Pre-emergence herbicidal activity, SETFA” value (Setaria fabenr (SETFA)) was 5. The “Post-emergence herbicidal activity, AVEFA (damage score 0-5)” value (Avena fatua (AVEFA) [6]) was 3, the “Post-emergence herbicidal activity, ECHCG (damage score 0-5)” value [7] was 4 and the “Post-emergence herbicidal activity, LOLPE (damage score 0-5)” value (Lolium perenne (LOLPE) [8]) was 2. The “Post-emergence herbicidal activity, ALOMY (damage score 0-5)” value [9] was 0 and the “Post-emergence herbicidal activity, TRAZW (damage score 0-5)” value [10] was 0.

In the case of `O=C(Nc1ccc(-c2cncc(F)c2)nc1C(F)(F)F)C1CCC1` [Compound C21], the “Pre-emergence herbicidal activity, ALOMY” value [1] is reported as 0, the “Pre-emergence herbicidal activity, AVEFA” value (Avena fatua (AVEFA) [2]) is reported as 2 and the “Pre-emergence herbicidal activity, TRAZW” value [3] is reported as 0. The “Pre-emergence herbicidal activity, ECHCG” value [4] was 4, the “Pre-emergence herbicidal activity, LOLPE” value (Lolium perenne (LOLPE) [5]) was 1 and the “Pre-emergence herbicidal activity, SETFA” value (Setaria fabenr (SETFA)) was 5. For the same compound, the “Post-emergence herbicidal activity, AVEFA (damage score 0-5)” value (Avena fatua (AVEFA) [6]) was 3, the “Post-emergence herbicidal activity, ECHCG (damage score 0-5)” value [7] was 5 and the “Post-emergence herbicidal activity, LOLPE (damage score 0-5)” value (Lolium perenne (LOLPE) [8]) was 2. For the same compound, the “Post-emergence herbicidal activity, ALOMY (damage score 0-5)” value [9] was 0 and the “Post-emergence herbicidal activity, TRAZW (damage score 0-5)” value [10] was 0.

With `CCCC(=O)Nc1ccc(-c2cncc(F)c2)nc1C(F)(F)F` [Compound C22] the “Pre-emergence herbicidal activity, ALOMY” value [1] was 0, the “Pre-emergence herbicidal activity, AVEFA” value (Avena fatua (AVEFA) [2]) was 2 and the “Pre-emergence herbicidal activity, TRAZW” value [3] was 0. For the same compound, the “Pre-emergence herbicidal activity, ECHCG” value [4] was 4, the “Pre-emergence herbicidal activity, LOLPE” value (Lolium perenne (LOLPE) [5]) was 1 and the “Pre-emergence herbicidal activity, SETFA” value (Setaria fabenr (SETFA)) was 5. The “Post-emergence herbicidal activity, AVEFA (damage score 0-5)” value (Avena fatua (AVEFA) [6]) was 3, the “Post-emergence herbicidal activity, ECHCG (damage score 0-5)” value [7] was 4 and the “Post-emergence herbicidal activity, LOLPE (damage score 0-5)” value (Lolium perenne (LOLPE) [8]) was 2. The “Post-emergence herbicidal activity, ALOMY (damage score 0-5)” value [9] was 0 and the “Post-emergence herbicidal activity, TRAZW (damage score 0-5)” value [10] was 0.

For `CCC(=O)N(CC1CC1)c1ccc(-c2cncc(F)c2)nc1C(F)(F)F` [Compound C108], the “Pre-emergence herbicidal activity, ALOMY” value [1] was 0, the “Pre-emergence herbicidal activity, AVEFA” value (Avena fatua (AVEFA) [2]) was 1 and the “Pre-emergence herbicidal activity, TRAZW” value [3] was 0. The “Pre-emergence herbicidal activity, ECHCG” value [4] was 2, the “Pre-emergence herbicidal activity, LOLPE” value (Lolium perenne (LOLPE) [5]) was 1 and the “Pre-emergence herbicidal activity, SETFA” value (Setaria fabenr (SETFA)) was 5. For the same compound, the “Post-emergence herbicidal activity, ECHCG (damage score 0-5)” value [7] was 3, the “Post-emergence herbicidal activity, ALOMY (damage score 0-5)” value [9] was 0 and the “Post-emergence herbicidal activity, SETFA (damage score 0-5)” value (Setaria fabenri (SETFA)) was 4. For the same compound, the “Post-emergence herbicidal activity, TRAZW (damage score 0-5)” value [10] was 0.

— patent publication US11230538B2, “Herbicides” (SYNGENTA PARTICIPATIONS AG, priority 2016, dated 2022)
